The supplement of paper PMC10307832

How the values were obtained:
Experiment in all cases: relative viability (nuclei count vs DMSO), 5 days (fraction); higher = more cells survive
[1] = compound: C[C@@H](N)c1ccc(C(=O)Nc2ccnc3[nH]ccc23)cc1 + CS(=O)(=O)CCNCc1ccc(-c2ccc3ncnc(Nc4ccc(OCc5cccc(F)c5)c(Cl)c4)c3c2)o1 [Lapatinib] (partner 2 µM)
In short: (§1)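 Relative viability is defined as nuclei in treated wells over nuclei in vehicle wells. Duplicate plates were run and medians reported. Lung cancer cell lines in 1536-well plates were dosed by pin tool one day after seeding, with one drug or with a fixed anchor-drug dose plus five library-drug doses (not always all listed) in √10 steps, and nuclei were counted after 5 days.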

[2] = compound: C[C@@H](N)c1ccc(C(=O)Nc2ccnc3[nH]ccc23)cc1 + CC(=O)Nc1cccc(-n2c(=O)n(C3CC3)c(=O)c3c(Nc4ccc(I)cc4F)n(C)c(=O)c(C)c32)c1 [Trametinib] (partner 0.02 µM)
In short: as §1

[3] = compound: C1CNCCC1C2=CC(=NN2)C3=CC=NC=C3 + CS(=O)(=O)CCNCc1ccc(-c2ccc3ncnc(Nc4ccc(OCc5cccc(F)c5)c(Cl)c4)c3c2)o1 [Lapatinib] (partner 2 µM)
In short: as §1

[4] = compound: C[C@@H](N)c1ccc(C(=O)Nc2ccnc3[nH]ccc23)cc1 + Cc1nc(Nc2ncc(C(=O)Nc3c(C)cccc3Cl)s2)cc(N2CCN(CCO)CC2)n1 [Dasatinib] (partner 0.075 µM)
In short: as §1

Row | Cell Line | relative viability ([1]; first compound 0.04 µM) | relative viability ([1]; first compound 0.1265 µM) | relative viability ([1]; first compound 0.4 µM) | relative viability ([1]; first compound 1.265 µM) | relative viability ([1]; first compound 4 µM) | relative viability ([2]; first compound 0.04 µM) | relative viability ([2]; first compound 0.1265 µM) | relative viability ([2]; first compound 0.4 µM) | relative viability ([2]; first compound 1.265 µM) | relative viability ([2]; first compound 4 µM) | relative viability ([3]; first compound 0.08 µM) | relative viability ([3]; first compound 0.8 µM) | relative viability ([3]; first compound 2.53 µM) | relative viability ([3]; first compound 8 µM) | relative viability ([4]; first compound 0.04 µM) | relative viability ([4]; first compound 0.1265 µM) | relative viability ([4]; first compound 0.4 µM) | relative viability ([4]; first compound 1.265 µM) | relative viability ([4]; first compound 4 µM)
1 | NCI-H838 | 0.683 | 0.922 | 0.708 | 0.445 | 0.427 | 0.261 | 0.512 | 0.45 | 0.289 | 0.192 | 0.906 | 0.97 | 1.07 | 0.895 | 0.221 | 0.305 | 0.26 | 0.187 | 0.233
2 | A549 | 1.1 | 0.895 | 1.06 | 0.924 | 0.53 |  |  |  |  |  | 0.863 | 1.02 | 1.14 | 0.952 |  |  |  |  | 
3 | NCI-H2342 |  |  |  |  |  | 0.91 | 0.821 | 0.837 | 0.746 | 0.737 |  |  |  |  | 0.342 | 0.357 | 0.322 | 0.317 | 0.327
4 | NCI-H1623 |  |  |  |  |  |  |  |  |  |  |  |  |  |  | 0.619 | 0.501 | 0.602 | 0.21 | 0.709
5 | SK-LU-1 | 0.847 | 0.85 | 0.906 | 0.828 | 0.779 | 0.422 | 0.506 | 0.625 | 0.299 | 0.473 | 0.944 | 0.799 | 0.849 | 0.814 | 0.132 | 0.138 | 0.136 | 0.109 | 0.121
6 | NCI-H2085 | 0.841 | 0.729 | 0.872 | 0.546 | 0.799 | 0.653 | 0.702 | 0.652 | 0.726 | 0.583 | 0.877 | 0.51 | 0.819 | 0.772 | 0.294 | 0.322 | 0.421 | 0.33 | 0.391
7 | NCI-H460 | 0.974 | 1.1 | 0.984 | 1.12 | 1.03 | 0.217 | 0.165 | 0.243 | 0.0564 | 0.178 | 0.68 | 1.4 | 1.11 | 1.03 | 0.463 | 0.525 | 0.451 | 0.27 | 0.337
8 | Calu-6 | 1.09 | 1.08 | 1.1 | 0.902 | 0.832 |  |  |  |  |  | 0.987 | 1.17 | 1.12 | 1.05 |  |  |  |  | 
9 | RERF-LC-KJ | 0.906 | 0.837 | 0.931 | 0.902 | 0.869 | 0.902 | 0.972 | 0.971 | 0.96 | 0.873 | 0.784 | 0.835 | 0.843 | 0.85 | 0.871 | 0.911 | 0.88 | 0.778 | 0.709
10 | LCLC-103H |  |  |  |  |  | 0.715 | 0.618 | 0.647 | 0.616 | 0.634 |  |  |  |  | 0.363 | 0.506 | 0.474 | 0.285 | 0.279
11 | HCC-15 | 0.827 | 0.789 | 0.854 |  | 0.785 | 0.456 | 0.365 | 0.422 | 0.384 | 0.362 | 0.849 | 0.953 | 0.871 | 0.823 | 0.633 | 0.574 | 0.603 |  | 0.442
12 | NCI-H1563 | 0.805 | 0.945 | 0.854 | 0.446 | 1.05 |  |  |  |  |  | 0.747 | 0.885 | 0.896 | 1.03 | 0.49 | 0.462 | 0.486 | 0.377 | 0.465
13 | NCI-H522 |  |  |  |  |  | 0.798 | 0.789 | 0.66 | 1.02 | 0.745 |  |  |  |  | 0.797 | 0.931 | 0.827 | 0.771 | 0.765
14 | HCC-44 | 1.09 | 1.02 | 1.04 | 1.18 | 0.916 | 1.08 | 1.11 | 1.18 | 1.16 | 0.952 | 1.04 | 1.14 | 1.04 | 0.966 |  |  |  |  | 
15 | NCI-H441 |  |  |  |  |  | 0.522 | 0.61 | 0.478 | 0.38 | 0.405 |  |  |  |  | 0.671 | 0.739 | 0.867 |  | 0.667
16 | NCI-H1299 | 0.908 | 0.93 | 0.91 | 0.837 | 0.737 |  |  |  |  |  | 0.96 | 0.948 | 1 | 0.891 |  |  |  |  | 
17 | ChaGo-K-1 |  |  |  |  |  | 0.888 | 0.863 | 0.823 | 0.894 | 0.789 |  |  |  |  | 0.475 | 0.554 | 0.541 | 0.54 | 0.42
18 | NCI-H1648 |  |  |  |  |  | 0.57 | 0.581 | 0.574 | 0.266 | 0.722 |  |  |  |  |  |  |  |  | 
19 | EBC-1 | 0.265 | 0.239 | 0.219 | 0.179 | 0.171 |  |  |  |  |  | 0.202 | 0.219 | 0.209 | 0.239 |  |  |  |  | 
20 | IA-LM | 0.779 | 0.954 | 0.865 | 1.27 | 0.957 |  |  |  |  |  | 0.809 | 1.13 | 0.926 | 0.898 |  |  |  |  | 
21 | ABC-1 | 1.16 | 1.02 | 1.2 |  | 1.36 |  |  |  |  |  | 1.14 | 1.25 | 1.09 | 1.38 | 0.577 | 0.552 | 0.648 | 0.507 | 0.445
22 | NCI-H1703 | 1.24 | 0.982 | 0.85 | 0.847 | 0.541 |  |  |  |  |  | 1.03 | 1.51 | 1.12 | 1.03 |  |  |  |  | 
